Laboratory results published in publication PMC6976303 (Biochemistry, 2019).

Molecular target: T1, human ABHD14B (Homo sapiens, UniProt Q96IU4)
T1 sequence (Q96IU4 1-210): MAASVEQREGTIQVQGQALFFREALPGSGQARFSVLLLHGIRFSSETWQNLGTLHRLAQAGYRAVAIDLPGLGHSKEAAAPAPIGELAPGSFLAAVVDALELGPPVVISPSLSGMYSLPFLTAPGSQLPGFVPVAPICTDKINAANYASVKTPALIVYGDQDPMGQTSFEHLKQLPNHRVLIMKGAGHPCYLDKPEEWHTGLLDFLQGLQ
Test: thermal shift assay, Sypro-Orange
Type: binding
Settings: 10 mM ligand, 10 μM enzyme, 10 mM Tris pH 8

For `CC(C)(COP(=O)(O)OP(=O)(O)OC[C@H]1O[C@@H](n2cnc3c(N)ncnc32)[C@H](O)[C@@H]1OP(=O)(O)O)[C@@H](O)C(=O)NCCC(=O)NCCS` [CoA], the “leftward (lower temperature) thermal shift” value was ~ 2 °C.
With `CC(=O)SCCNC(=O)CCNC(=O)[C@H](O)C(C)(C)COP(=O)(O)OP(=O)(O)OC[C@H]1O[C@@H](n2cnc3c(N)ncnc32)[C@H](O)[C@@H]1OP(=O)(O)O` [acetyl-CoA] the “leftward (lower temperature) thermal shift” value was ~ 2 °C.
